Data from patent US7714006B1, “Methods of modifying the bioavailability of metaxalone” (King Pharmaceuticals Research & Development, Inc., priority 2001, dated 2010).

Test: Effects of age and gender on PK parameters, study 101 (1×400 mg with and without food)
Assay type: in vivo, human
Procedure: In addition, the robustness of the results are assessed by applying similar analysis approaches to the data from two other studies: • Study AN151607-101 (hereafter referred to as the 101 study): a two-period, randomized crossover trial with treatment conditions 1×400 mg with food and 1×400 mg without food; • Study AN151607-106 (hereafter referred to as the 106 study): a single dose trial with treatment condition 2×400 mg without food.
Study 101 was a two-period randomized crossover trial conducted in 42 healthy volunteers. The mean age was 23.8 years, with a range from 18 to 42 years. The treatment conditions were 1×400 mg with food and 1×400 mg without food. Because the treatments were not the same as in the 103 and 105 studies (1×400 mg in study 101, as opposed to 2×400 mg in studies 103 and 105), and additionally because the blood sample collection schedules were not the same, it is not possible to combine the 101 data with the data from studies 103 and 105. However, it is possible to independently investigate the effects of age on fed and fasted values of the PK parameters in order to determine if the effects are of similar magnitude and direction to those found in the 103 and 105 studies.
First, Pearson and Spearman correlation coefficients between age and each of the three PK parameters were computed. The correlation coefficients and two-sided p-values from the test of the null hypothesis of no association are shown below in TABLE VIa:
Linear regression models using the natural logarithm of each of the three PK parameters as the dependent variable and age as the independent variable were fitted in order to estimate the magnitude of the associations with age.
Study 101 was a two-period randomized crossover trial conducted in 42 healthy volunteers (31 males, 11 females). The mean age was 23.8 years, with a range from 18 to 42 years. The treatment conditions were 1×400 mg with food and 1×400 mg without food. Because the treatments were not the same as in the 103 and 105 studies, and additionally because the blood sample collection schedules were not the same, it is not possible to combine the 101 data with the data from studies 103 and 105. However, it is reasonable to independently investigate the effects of age and gender on the fed and fasted values of the PK parameters in order to determine if the effects are of similar magnitude and direction to those found in the 103 and 105 studies.
The same regression modeling strategy as was described in Sections 3.2 and 3.3 was also applied. The initial regression models with a gender effect and separate age effects for males and females yielded positive estimates of the age effect for males and negative estimates for females. This was consistent across all three PK parameters. However, none of the age effects was statistically significant and, in addition, there was no significant evidence of interaction between age and gender (all p-values exceeded 0.10). […]

Cc1cc(C)cc(OCC2CNC(=O)O2)c1 (centres unmarked) [metaxalone, 5-[(3,5-dimethylphenoxy)methyl]-2 oxazolidinone]
Proportion of variability explained by age, ln(AUC(inf)) (fasted): 7.7% | Proportion of variability explained by age, ln(Cmax) (fasted): 13.4% | Pearson correlation, age vs ln(AUC(inf)) (fasted, females n=11): 0.208 | Pearson correlation, age vs ln(AUC(last)) (fasted, females n=11): 0.284 | Pearson correlation, age vs ln(Cmax) (fasted, females n=11): 0.309 | Spearman correlation, age vs ln(AUC(inf)) (fasted, females n=11): 0.235 | Spearman correlation, age vs ln(AUC(last)) (fasted, females n=11): 0.406 | Spearman correlation, age vs ln(Cmax) (fasted, females n=11): 0.525 | Pearson correlation, age vs ln(AUC(inf)) (fasted, males n=31): 0.287 | Pearson correlation, age vs ln(AUC(last)) (fasted, males n=31): 0.279 | Pearson correlation, age vs ln(Cmax) (fasted, males n=31): 0.384 | Spearman correlation, age vs ln(AUC(inf)) (fasted, males n=31): 0.115 | Spearman correlation, age vs ln(AUC(last)) (fasted, males n=31): 0.127 | Spearman correlation, age vs ln(Cmax) (fasted, males n=31): 0.206 | Pearson correlation, age vs ln(AUC(inf)) (fasted, n=42): 0.277 | Pearson correlation, age vs ln(AUC(last)) (fasted, n=42): 0.289 | Pearson correlation, age vs ln(Cmax) (fasted, n=42): 0.366 | Spearman correlation, age vs ln(AUC(inf)) (fasted, n=42): 0.146 | Spearman correlation, age vs ln(AUC(last)) (fasted, n=42): 0.161 | Spearman correlation, age vs ln(Cmax) (fasted, n=42): 0.235 | Proportion of variability explained by age, ln(AUC(inf)) (fed): 3% | Proportion of variability explained by age, ln(AUC(last)) (fed): 3% | Proportion of variability explained by age, ln(Cmax) (fed): 1% | Pearson correlation, age vs ln(AUC(inf)) (fed, females n=11): −0.165 | Pearson correlation, age vs ln(AUC(last)) (fed, females n=11): −0.188 | Pearson correlation, age vs ln(Cmax) (fed, females n=11): −0.396 | Spearman correlation, age vs ln(AUC(inf)) (fed, females n=11): −0.244 | Spearman correlation, age vs ln(AUC(last)) (fed, females n=11): −0.295 | Spearman correlation, age vs ln(Cmax) (fed, females n=11): −0.645 | Pearson correlation, age vs ln(AUC(inf)) (fed, males n=31): 0.268 | Pearson correlation, age vs ln(AUC(last)) (fed, males n=31): 0.271 | Pearson correlation, age vs ln(Cmax) (fed, males n=31): 0.234 | Spearman correlation, age vs ln(AUC(inf)) (fed, males n=31): 0.088 | Spearman correlation, age vs ln(AUC(last)) (fed, males n=31): 0.094 | Spearman correlation, age vs ln(Cmax) (fed, males n=31): 0.169 | Pearson correlation, age vs ln(AUC(inf)) (fed, n=42): 0.186 | Pearson correlation, age vs ln(AUC(last)) (fed, n=42): 0.179 | Pearson correlation, age vs ln(Cmax) (fed, n=42): 0.102 | Spearman correlation, age vs ln(AUC(inf)) (fed, n=42): 0.029 | Spearman correlation, age vs ln(AUC(last)) (fed, n=42): 0.022 | Spearman correlation, age vs ln(Cmax) (fed, n=42): −0.009
